# Where two headings read alike, the source gives them in different places.
# Assays:
# [1] = test system: HSV-1 WT; test: 50% plaque reduction of HSV-1 wild type in 3T3 TK- and 3T3 TK-/TK+HSV cells (Table VIII); details: Human alphaherpesvirus 1, in Mus musculus, read-out: Antiviral Concentration, 50% plaque reduction
# [2] = test system: Adeno Type 2; test: Plaque inhibition, Adeno Type 2 on BSC cells (Table V); format: cell-based, Adeno Type 2; BSC (monkey) cells; details: Primates, read-out: ED50, concentration required for 50% plaque inhibition; Adeno Type 2, BSC
# Protocol: (§1) ED50 values developed for the cyclic monophosphate are compared on a weight basis to those established for the compound of Formula II and acyclovir.
# Adeno Type 2 was assayed on BSC (monkey) cell cultures.
# [3] = test system: Herpes simplex virus type 2; test: Tube dilution assay, viral cytopathology of HSV-2 in rabbit kidney cell cultures; details: Human alphaherpesvirus 2, in Oryctolagus cuniculus, read-out: Minimum Effective Concentration
# [4] = test system: HSV-1 383R1; format: cell-based, HSV-1 (383R1); NIH 3T3 mouse cells; details: Human alphaherpesvirus 1, in Mus musculus
# [5] = test system: HSV-2 TS6; test: microbe, parasite or virus in culture; details: Human alphaherpesvirus 2, read-out: ED50
# [6] = test system: HSV-1 (383R1); test: Protection of mice against intraperitoneal infection with HSV-1 (383R1) (Table IX); format: in vivo, HSV-1; mice
# Protocol: (§2) 1. […] Groups of mice infected intraperitoneally with increasing doses of HSV-1 or HSV-1 (383R1) were treated twice daily subcutaneously for 4 days with either the Cyclic Monophosphate or the compound of Formula II. Mean survival times of treated mice were compared.
# [7] = test system: SV40; test: Plaque inhibition, SV40 on CV-1 cells (Table V); format: cell-based, SV40; CV-1 (monkey) cells; details: Primates, read-out: ED50, concentration required for 50% plaque inhibition; SV40, CV-1
# Protocol: as §1
# SV40 was assayed on CV-1 (monkey) cell cultures.
# [8] = test system: Herpes simplex virus type 1; test: Tube dilution assay, viral cytopathology of HSV-1 in rabbit kidney cell cultures; details: Human alphaherpesvirus 1, in Oryctolagus cuniculus
# [9] = test system: Herpes simplex virus type 1 (Strain S); test: Orofacial Herpes simplex virus type 1 infection in mice, therapeutic oral treatment (Table XIV); format: in vivo, Herpes simplex virus type 1; HRS (hairless) mice; details: for Lesion Incidence (%) / Lesion Incidence (number/Total) / Lesion Severity (scale 0 to 4): 12.5 mg/kg/day oral
# Protocol: Twenty gram HRS (hairless) mice were infected on the abraded orofacial area with Herpes simplex virus type 1 (Strain S).
# a. Groups of 10 infected animals were treated twice daily by oral gavage for up to 7 days with the compound of formula II at 12.5 mg/kg/day, starting 3, 8, 12, 24, 48, 72, or 96 hours after infection. […]
# At 7 days after initiation of infection, the extent of lesion development in the orofacial area was measured on a scale of 0 (no lesions) to 4 (massive lesions over the entire snout).
# [10] = test system: Epstein-Barr virus (EBV); test: Human cord blood lymphocyte transformation assay; format: cell-based, Epstein-Barr (B95-8); human cord blood lymphocytes; details: human gammaherpesvirus 4, B-95-8; B95-8, lymphocyte transformation; read-out: Minimum Effective Concentration
# Text: ^c Human cord blood lymphocyte transformation assay.
# [11] = test system: HSV-1 wild type (Schooler); test: Protection of mice against intraperitoneal infection with HSV-1 (Table IX); format: in vivo, HSV-1; mice
# Protocol: as §2
# [12] = test system: Herpes simplex virus type 1 (Strain S); test: Orofacial Herpes simplex virus type 1 infection in mice, oral treatment (Table XIII); format: in vivo, Herpes simplex virus type 1; HRS (hairless) mice; details: for Lesion Incidence (%) / Lesion Incidence (number/Total) / Lesion Severity (scale 0 to 4): 7 days
# Protocol: Twenty grams HRS (hairless) mice were infected on the abraded orofacial area with Herpes simplex virus type 1 (Strain S). […] At 7 days after initiation of infection, the extent of lesion development in the orofacial area was measured on a scale of 0 (no lesions) to 4 (massive lesions over the entire snout).
# [13] = test system: Herpes simplex virus type 2 (Strain Curtis); test: Vaginal Herpes simplex virus type 2 infection in mice, oral treatment (Table XII); format: in vivo, Herpes simplex virus type 2; ICR/Ha female mice; details: for Percent Survival: at 19 days
# Protocol: Groups of 10 animals were treated twice daily for ten days by oral gavage using acycloquanosine or the compound of formula II at final daily doses of 50, 12.5, 3.1, 0.8 or 0.2 mg/kg starting immediately following infection. The average number of days to infection and the average days of survival were determined for each group and compared to an infected, placebo-treated group.
smiles,measurement,setting,value
"Nc1nc2c(ncn2COC(CO)CO)c(=O)[nH]1 [Compound of Formula II, 9-(1,3-Dihydroxy-2-propoxymethyl)guanine]",EC50,[1],0.06 µg/mL
same,EC50,[2],50 µg/mL
same,minimal effective concentration,[3],1 to 3 µg/mL
same,EC50,"[4]; read-out: Antiviral Concentration, 50% plaque reduction, HSV-1 383R1, 3T3 TK^- /TK^+HSV cells",0.06 µg/mL
same,EC50,"[4]; read-out: Antiviral Concentration, 50% plaque reduction, HSV-1 383R1, 3T3 TK^- cells",5 µg/mL
same,EC50,[5],15.5 µg/mL
same,Mean Survival Time (± SD),"[6]; HSV-1 (383R1), s.c. twice daily, 4 days",9.05 (0.80)
same,efficacy against HSV-1 (383R1) relative to wild type HSV-1,"[6]; mouse, in vivo",significantly lower
same,EC50,[7],> 100 µg/mL
same,minimal effective concentration,"[8]; read-out: Minimum Effective Concentration, Strain McIntyre",3 µg/mL
same,minimal effective concentration,"[8]; read-out: Minimum Effective Concentration, Strain McKrae",1 to 3 µg/mL
same,minimal effective concentration,"[8]; read-out: Minimum Effective Concentration, Strain S",1 to 3 µg/mL
same,minimal effective concentration,"[8]; read-out: Minimum Effective Concentration, Strain Schooler",1 to 3 µg/mL
same,Lesion Incidence (%),[9]; start 3 hours post infection,60%
same,Lesion Incidence (number/Total),[9]; start 3 hours post infection,6/10
same,Lesion Severity (scale 0 to 4),[9]; start 3 hours post infection,1.30
same,Lesion Incidence (%),[9]; start 8 hours post infection,30%
same,Lesion Incidence (number/Total),[9]; start 8 hours post infection,3/10
same,Lesion Severity (scale 0 to 4),[9]; start 8 hours post infection,0.55
same,Lesion Incidence (%),[9]; start 12 hours post infection,50%
same,Lesion Incidence (number/Total),[9]; start 12 hours post infection,5/10
same,Lesion Severity (scale 0 to 4),[9]; start 12 hours post infection,0.55
same,Lesion Incidence (%),[9]; start 24 hours post infection,40%
same,Lesion Incidence (number/Total),[9]; start 24 hours post infection,4/10
same,Lesion Severity (scale 0 to 4),[9]; start 24 hours post infection,0.40
same,Lesion Incidence (%),[9]; start 48 hours post infection,90%
same,Lesion Incidence (number/Total),[9]; start 48 hours post infection,9/10
same,Lesion Severity (scale 0 to 4),[9]; start 48 hours post infection,1.50
same,Lesion Incidence (%),[9]; start 72 hours post infection,80%
same,Lesion Incidence (number/Total),[9]; start 72 hours post infection,8/10
same,Lesion Severity (scale 0 to 4),[9]; start 72 hours post infection,2.55
same,Lesion Incidence (%),[9]; start 96 hours post infection,100%
same,Lesion Incidence (number/Total),[9]; start 96 hours post infection,10/10
same,Lesion Severity (scale 0 to 4),[9]; start 96 hours post infection,3.85
same,incidence of lesion development vs placebo,"[9]; start 8, 12 and 24 hours after infection",statistically significant lower incidence of lesion development
same,lesion scores vs placebo,[9]; start as late as 72 hours after infection,statistically significant lower lesion scores
same,minimal effective concentration,[10],1 to 5 µg/mL
same,Mean Survival Time (± SD),"[11]; HSV-1, s.c. twice daily, 4 days",12.55 (0.88)
same,protective efficacy over a 10^6 -fold virus challenge range,[11]; HSV-1 or HSV-1 (383R1),no significant difference in protective efficacy
same,Lesion Incidence (%),[12]; 0.2 mg/kg/day oral,100%
same,Lesion Incidence (number/Total),[12]; 0.2 mg/kg/day oral,7/7
same,Lesion Severity (scale 0 to 4),[12]; 0.2 mg/kg/day oral,2.93
same,Lesion Incidence (%),[12]; 0.8 mg/kg/day oral,100%
same,Lesion Incidence (number/Total),[12]; 0.8 mg/kg/day oral,7/7
same,Lesion Severity (scale 0 to 4),[12]; 0.8 mg/kg/day oral,2.93
same,Lesion Incidence (%),[12]; 3.1 mg/kg/day oral,67%
same,Lesion Incidence (number/Total),[12]; 3.1 mg/kg/day oral,6/9
same,Lesion Severity (scale 0 to 4),[12]; 3.1 mg/kg/day oral,1.00
same,Lesion Incidence (%),[12]; 12.5 mg/kg/day oral,20%
same,Lesion Incidence (number/Total),[12]; 12.5 mg/kg/day oral,2/10
same,Lesion Severity (scale 0 to 4),[12]; 12.5 mg/kg/day oral,0.45
same,Lesion Incidence (%),[12]; 50 mg/kg/day oral,10%
same,Lesion Incidence (number/Total),[12]; 50 mg/kg/day oral,1/10
same,Lesion Severity (scale 0 to 4),[12]; 50 mg/kg/day oral,0.05
same,incidence of lesions vs placebo,[12]; 50 and 12.5 mg/kg,statistically significant protection
same,extent of lesion development vs placebo,[12]; all concentrations used,statistically significant protection
same,relative potency to acycloguanosine,[12]; statistically significant,6.9
same,Avg. Survival Time,[13]; 0.2 mg/kg/day oral,12.1 days
same,Percent Survival,[13]; 0.2 mg/kg/day oral,30%
same,Avg. Survival Time,[13]; 0.8 mg/kg/day oral,15.1 days
same,Percent Survival,[13]; 0.8 mg/kg/day oral,40%
same,Avg. Survival Time,[13]; 3.1 mg/kg/day oral,19.1 days
same,Percent Survival,[13]; 3.1 mg/kg/day oral,75%
same,Avg. Survival Time,[13]; 12.5 mg/kg/day oral,24.7 days
same,Percent Survival,[13]; 12.5 mg/kg/day oral,100%
same,number of days to infection vs placebo,[13]; 50 mg/kg and 12.5 mg/kg,statistically significant increases in the number of days to infection
same,signs of herpetic infection,"[13]; 50 mg/kg, duration of the test",remained free of signs of herpetic infection
same,Avg. Survival Time,[13]; 50 mg/kg/day oral,24.7 days
same,Percent Survival,[13]; 50 mg/kg/day oral,100%
same,survival time vs placebo,"[13]; 50, 12.5, 3.1 and 0.8 mg/kg",statistically significant increase in survival time
same,survival rate vs placebo,"[13]; 50, 12.5 and 3.1 mg/kg",statistically significantly increased
same,relative potency to acycloguanosine as measured by survival,[13]; statistically significant,28.1
same,relative potency to acycloguanosine as measured by time to infection,[13]; statistically significant,4.14

# Source: US4816447A, “Anti-viral guanine compounds” (priority 1984, dated 1989)
